The supplement of paper PMC10307832

Legend:
Test in all cases: relative viability (nuclei count vs DMSO), 5 days (fraction); higher = more cells survive
[1] = compound: CC[C@@H](C)CNCC(=O)N1CCC2=C([C@@H]1COC3=CC=CC(=C3)C)C=CS2 [RU-SKI 43] + CC(=O)c1c(C)c2cnc(Nc3ccc(N4CCNCC4)cn3)nc2n(C2CCCC2)c1=O [Palbociclib] (partner 0.5 µM)
In short: (§1)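 The day after seeding in 1536-well plates, lung cancer cell lines were treated by pin tool with a single drug, or with a fixed anchor-drug dose together with five library-drug doses (not always all listed) in √10 steps. After 5 days, a combined fix-and-stain solution (final 0.05% Triton X-100, 1% formaldehyde, 1 ug/ml Hoechst) was added. Nuclei counted on 4× images gave relative viability as treated counts over vehicle counts, reported as the median of duplicate plates.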

[2] = compound: CCc1c2c(nc3ccc(OC(=O)N4CCC(N5CCCCC5)CC4)cc13)-c1cc3c(c(=O)n1C2)COC(=O)[C@]3(O)CC [Irinotecan] + Cc1cc(Nc2cc(N3CCN(C)CC3)nc(Sc3ccc(NC(=O)C4CC4)cc3)n2)n[nH]1 [Tozasertib] (partner 0.1 µM)
In short: as §1

[3] = compound: Cn1cc(-c2cnc3ccc4ccc(CS(=O)(=O)NCc5ccccn5)cc4c(=O)c3c2)cn1 [MK-8033] + CC1(C)CCC(c2ccc(Cl)cc2)=C(CN2CCN(c3ccc(C(=O)NS(=O)(=O)c4ccc(N[C@H](CCN5CCOCC5)CSc5ccccc5)c(S(=O)(=O)C(F)(F)F)c4)cc3)CC2)C1 [Navitoclax] (partner 0.5 µM)
In short: as §1

[4] = compound: Cn1cc(-c2cnc3ccc4ccc(CS(=O)(=O)NCc5ccccn5)cc4c(=O)c3c2)cn1 [MK-8033] + NC(=O)Nc1cc(-c2cccc(F)c2)sc1C(=O)N[C@H]1CCCNC1 [AZD7762] (partner 0.2 µM)
In short: as §1

Row | Cell Line | relative viability ([1]; first compound 0.1 µM) | relative viability ([1]; first compound 0.3162 µM) | relative viability ([1]; first compound 1 µM) | relative viability ([1]; first compound 3.162 µM) | relative viability ([1]; first compound 10 µM) | relative viability ([2]; first compound 2 µM) | relative viability ([2]; first compound 6.325 µM) | relative viability ([2]; first compound 20 µM) | relative viability ([3]; first compound 0.02 µM) | relative viability ([3]; first compound 0.06325 µM) | relative viability ([3]; first compound 0.2 µM) | relative viability ([3]; first compound 0.6325 µM) | relative viability ([3]; first compound 2 µM) | relative viability ([4]; first compound 0.02 µM) | relative viability ([4]; first compound 0.06325 µM) | relative viability ([4]; first compound 0.2 µM) | relative viability ([4]; first compound 0.6325 µM) | relative viability ([4]; first compound 2 µM) | relative viability ([2]; first compound 0.6325 µM)
1 | 201T | 0.367 | 0.329 | 0.368 | 0.361 | 0.361 | 0.682 | 0.402 | 0.318 | 1.26 | 1.19 | 1.21 | 1.16 | 1.2 | 0.7 | 0.481 | 0.607 | 0.683 | 0.618 | –
2 | A549 | – | – | – | – | – | – | – | – | 1.22 | 1.13 | 1.16 | 1.19 | 1.14 | – | – | – | – | – | –
3 | A-427 | 0.536 | 0.532 | 0.523 | 0.564 | 0.503 | 0.159 | 0.216 | 0.182 | 0.967 | 0.869 | 0.891 | 0.912 | 0.868 | 0.791 | 0.634 | 0.692 | 0.775 | 0.728 | –
4 | ABC-1 | 0.517 | 0.824 | 0.719 | 0.866 | 0.636 | 0.236 | 0.211 | 0.114 | – | – | – | – | – | 0.86 | 0.709 | 0.475 | 0.874 | 1.06 | –
5 | BEN | 0.489 | 0.468 | 0.523 | 0.46 | 0.451 | 0.499 | 0.447 | 0.34 | 0.067 | 0.0568 | 0.0526 | 0.0753 | 0.0791 | 0.82 | 0.634 | 0.76 | 0.599 | 0.788 | 0.378
6 | CAL-12T | 0.413 | 0.474 | 0.365 | 0.457 | 0.391 | 0.419 | 0.322 | 0.197 | 1.19 | 1.2 | 1.15 | 0.92 | 1.28 | 0.594 | 0.66 | 0.59 | 0.573 | 0.567 | –
7 | COR-L23 | 0.288 | 0.241 | 0.311 | 0.357 | 0.277 | 0.225 | 0.176 | 0.105 | 0.938 | 0.88 | 0.948 | 1.01 | 0.885 | – | – | – | – | – | 0.161
8 | COR-L 105 | 0.39 | 0.367 | 0.433 | 0.395 | 0.363 | 0.373 | 0.458 | 0.273 | 0.689 | 0.777 | 0.779 | 0.694 | 0.906 | – | – | – | – | – | 0.346
9 | Calu-6 | – | – | – | – | – | – | – | – | 0.784 | 0.799 | 0.691 | 0.869 | 0.905 | – | – | – | – | – | –
10 | ChaGo-K-1 | 0.919 | 1.05 | 1 | 0.976 | 0.956 | 0.205 | 0.193 | 0.218 | 1.2 | 0.962 | 0.945 | 1.04 | 0.922 | 0.872 | 0.921 | 0.857 | 0.932 | 0.82 | 0.216
11 | EBC-1 | – | – | – | – | – | – | – | – | 0.428 | 0.383 | 0.474 | 0.404 | 0.13 | – | – | – | – | – | –
12 | EKVX | 0.332 | 0.319 | 0.336 | 0.379 | 0.353 | 0.258 | 0.303 | 0.177 | 0.939 | 0.923 | 0.916 | 0.82 | 0.96 | 0.695 | 0.615 | 0.693 | 0.647 | 0.63 | 0.336
13 | EMC-BAC-2 | 0.523 | 0.477 | 0.552 | 0.505 | 0.518 | 0.269 | 0.259 | 0.406 | 1.16 | 1.06 | 1.12 | 1.14 | 1.15 | 1.12 | 0.979 | 1 | 1.01 | 1.09 | 0.263
14 | EPLC-272H | 0.315 | 0.254 | 0.323 | 0.286 | 0.307 | 0.252 | 0.258 | 0.25 | 1.12 | – | 1.07 | 0.853 | 1.08 | 0.207 | 0.144 | 0.201 | 0.167 | 0.19 | 0.165
15 | H3255 | 0.313 | 0.316 | 0.331 | 0.32 | 0.301 | 0.501 | 0.375 | 0.437 | 0.577 | 0.446 | 0.441 | 0.418 | 0.485 | 0.932 | 0.724 | 0.793 | 0.788 | 0.899 | 0.513
16 | HARA | 0.233 | 0.205 | 0.281 | 0.28 | 0.233 | 0.12 | 0.107 | 0.103 | 1.1 | 1.14 | 1.15 | 1.1 | 1.16 | 0.471 | 0.268 | 0.263 | 0.303 | 0.438 | 0.0659
17 | HCC-15 | 0.706 | 0.883 | 0.76 | 0.753 | 0.665 | 0.332 | 0.164 | 0.151 | 0.744 | 0.706 | 0.679 | 0.668 | 0.668 | 1.06 | 1.31 | 0.978 | 1.31 | 1.18 | –
18 | HCC-44 | 0.942 | 0.987 | 0.97 | 1.03 | 0.953 | 1.17 | 0.377 | 0.308 | 0.874 | 0.911 | 0.912 | 0.963 | 0.899 | 1.04 | 1.04 | 0.994 | 1.06 | 1.02 | –
19 | HCC-78 | 0.43 | 0.408 | 0.533 | 0.461 | 0.503 | 0.356 | 0.21 | 0.0831 | 0.596 | 0.665 | 0.767 | – | 0.774 | 0.712 | 0.517 | 0.719 | 0.557 | 0.566 | 0.411
20 | HCC-366 | 0.274 | 0.447 | 0.416 | 0.396 | 0.264 | 0.109 | 0.0553 | 0.0875 | 1.02 | 1.11 | 1.06 | 1.01 | 1.07 | 0.367 | 0.231 | 0.228 | 0.291 | 0.256 | 0.0963
